According to US20040204455A1, “Piperidine derivative rennin inhibitors” (priority 2003, published 2004):

Target: T1, human renin (Homo sapiens, UniProt P00797)
T1 sequence (P00797 67-406): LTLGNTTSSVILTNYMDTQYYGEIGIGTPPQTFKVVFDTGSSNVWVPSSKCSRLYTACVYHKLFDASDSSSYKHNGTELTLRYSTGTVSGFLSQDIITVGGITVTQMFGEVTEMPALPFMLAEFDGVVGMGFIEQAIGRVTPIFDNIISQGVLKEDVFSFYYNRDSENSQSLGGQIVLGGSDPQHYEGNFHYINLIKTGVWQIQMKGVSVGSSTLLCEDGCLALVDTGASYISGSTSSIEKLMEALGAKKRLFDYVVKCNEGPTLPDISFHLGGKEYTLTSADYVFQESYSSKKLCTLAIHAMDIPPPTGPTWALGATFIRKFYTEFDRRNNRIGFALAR
Test: Determination of Renin IC50 by tGFP FRET Assay
Assay type: biochemical
Settings: Human recombinant renin, tandem GFP substrate 650 nM, renin and compound incubated 60 minutes before substrate, pH 7.4
Excerpt: Determination of Renin IC50 by tGFP FRET Assay
The tGFP FRET (Green Fluorescent Protein Fluorescence Resonance Energy Transfer) assay utilizes a tandem GFP substrate (60 kDa) containing nine amino acid recognition sequences for human renin flanked by two GFP proteins. The assay is used to determine the ability of a compound to act as an inhibitor of renin enzymatic activity by determination of that concentration of test compound that inhibits by 50% (IC50) the ability of renin to cleave the tandem GFP substrate. The IC50 values are determined over an 11-point curve at concentrations of 100 μM to […]. Each compound concentration used to construct the curve was dependent on renin inhibitor potency. For example, subnanomolar IC50 values were determined over an 11-point curve at concentrations of 10 μM to […]. All other IC50 values were determined over an 11-point curve at concentrations of 100 μM to 0.0065 μM. The concentrations were achieved by diluting a 9.1 nM stock of Human recombinant renin in the appropriate amount of buffer containing 50 mM HEPES, 1 mM EDTA, 1% PEG (8000 MW), 1 mM DTT, 0.1% BSA, pH 7.4 to achieve the final concentration of 50.4 μIU. The tGFP substrate stock solution of 43 μM was diluted with the appropriate amount of the above buffer to obtain the final concentration of 650 nM. In addition, 1 μl of the compound is diluted in DSMO to represent an […] log scale (5% final). The renin and compound are added to a 384 capacity plate by an automated robot (BIOMEK). The plate is incubated for 60 minutes; upon completion the tGFP substrate is added.
The IC50 is determined by monitoring the increase in […] at 432/432 nm excitation, 530/475 nm emission with a cutoff at 515/455 nm, in a fluorometric plate reader.

Row | SMILES | IC50 [nM]
1 | O=C1CCC(=O)N1CCOc1cccc(CN[C@H]2CNCC[C@H]2c2ccc(OCCCOCc3ccccc3F)cc2)c1 (racemic) [1-(2-{3-[(4-{4-[3-(2-Fluoro-benzyloxy)-propoxy]-phenyl}-piperidin-3-ylamino)-methyl]-phenoxy}-ethyl)-pyrrolidine-2,5-dione] | 1400
2 | O=C1CCCN1CCOc1cccc(CN[C@H]2CNCC[C@H]2c2ccc(OCCCOCc3ccccc3F)cc2)c1 (racemic) [1-(2-{3-[(4-{4-[3-(2-Fluoro-benzyloxy)-propoxy]-phenyl}-piperidin-3-ylamino)-methyl]-phenoxy}-ethyl)-pyrrolidine-2-one] | 932
3 | COC(=O)c1cccc(CN[C@@H]2CNCC[C@@H]2c2ccc(OCCCOCc3ccccc3F)cc2)n1 (racemic) [6-[(4-{4-[3-(2-Fluoro-benzyloxy)-propoxy]-phenyl}-piperidin-3-ylamino)-methyl]-pyridine-2-carboxylic acid methyl ester] | 6980
4 | COc1ccccc1COCCCOc1ccc([C@H]2CCNC[C@H]2NCc2ccc3cc(O)ccc3c2)cc1 (racemic) [6-[(4-{4-[3-(2-methoxy-benzyloxy)-propoxy]-phenyl}-piperidin-3-ylamino)-methyl]-naphthalen-2-ol] | > 1000
5 | COc1ccccc1COCCCOc1ccc([C@H]2CCNC[C@H]2NCc2ccc3[nH]ccc3c2)cc1 (racemic) [(1H-indol-5-ylmethyl)-(4-{4-[3-(2-methoxy-benzyloxy)-propoxy]-phenyl}-piperidin-3-yl)-amine] | > 1000
6 | Fc1ccccc1COCCCOc1ccc([C@@H]2CCNC[C@@H]2NCc2ccc(F)c(C(F)(F)F)c2)cc1 (racemic) [(4-{4-[3-(2-fluoro-benzyloxy)-propoxy]-phenyl}-piperidin-3-yl)-(4-fluoro-3-trifluoromethyl-benzyl)-amine] | 454
7 | COc1ccccc1COCCCOc1ccc([C@H]2CCNC[C@H]2NCc2ccc3c(c2)NCCC3)cc1 (racemic) [(4-{4-[3-(2-methoxy-benzyloxy)-propoxy]-phenyl}-piperidin-3-yl)-(1,2,3,4-tetrahydro-quinolin-7-ylmethyl)-amine] | 226
8 | COc1ccc2cc(CN[C@@H]3CNCC[C@@H]3c3ccc(OCCCOCc4ccccc4OC)cc3)ccc2c1 (racemic) [(4-{4-[3-(2-methoxy-benzyloxy)-propoxy]-phenyl}-piperidin-3-yl)-(6-methoxy-naphthalen-2-ylmethyl)-amine] | 74.3
9 | COC(=O)c1cccc2cc(CN[C@@H]3CNCC[C@@H]3c3ccc(OCCCOCc4ccccc4OC)cc3)ccc12 [6-[(4-[3-(2-methoxy-benzyloxy)-propoxyl]-phenyl}-piperidin-3-ylamino)-methyl]-naphthalene-1-carboxylic acid methyl ester] | 282
10 | COc1ccccc1COCCCOc1ccc([C@H]2CCNC[C@H]2NCc2ccc3c(C(=O)O)cccc3c2)cc1 [6-[(4-[4-(2-methoxy-benzyloxy)-propoxyl]-phenyl}-piperidin-3-ylamino)-methyl]-naphthalene-1-carboxylic acid] | 2600
11 | COC(=O)c1ccc2cc(CN[C@@H]3CNCC[C@@H]3c3ccc(OCCCOCc4ccccc4F)cc3)ccc2c1 [6-[(4-{4-[3-(2-Fluoro-benyloxy)-propoxy]-phenyl}-piperidin-3-ylamino)-methyl]-naphthalene-2-carboxylic acid methyl ester] | 877
12 | O=C(O)c1ccc2cc(CN[C@@H]3CNCC[C@@H]3c3ccc(OCCCOCc4ccccc4F)cc3)ccc2c1 [6-[(4-{4-[3-(2-Fluoro-benyloxy)-propoxy]-phenyl}-piperidin-3-ylamino)-methyl]-naphthalene-2-carboxylic acid] | > 1000
13 | COC(=O)c1ccc2cc(CN[C@@H]3CNCC[C@@H]3c3ccc(OCCCOCc4ccccc4OC)cc3)ccc2c1 [6-[(4-{4-[3-(2-Methoxy-benyloxy)-propoxy]-phenyl}-piperidin-3-ylamino)-methyl]-naphthalene-2-carboxylic acid methyl ester] | 329

The remaining lines, values ahead:

Row | IC50 [nM] | SMILES
14 | 573 | COc1ccccc1COCCCOc1ccc([C@H]2CCNC[C@H]2N(C)Cc2ccc3ccccc3c2)cc1 (racemic) [(4-{4-[3-(2-methoxy-benzyloxy)-propoxy]-phenyl}-piperidin-3-yl)-methyl-naphthalen-2-ylmethyl-amine]
15 | 87 | COc1ccccc1COCCCOc1ccc([C@H]2CCNC[C@H]2NCc2ccc3ccccc3c2)cc1 (racemic) [(4-{4-[3-(2-methoxy-benzyloxy)-propoxy]-phenyl}-piperidin-3-yl)-naphthalen-2-ylmethyl-amine]
16 | 175 | COc1ccccc1COCCCOc1ccc([C@H]2CCNC[C@H]2NCc2ccc3cccnc3c2)cc1 (racemic) [(4-{4-[3-(2-methoxy-benzyloxy)-propoxy]-phenyl}-piperidin-3-yl)-quinolin-7-ylmethyl-amine]
17 | 693 | O=S(=O)(N[C@@H]1CNCC[C@@H]1c1ccc(OCCCOCc2ccccc2F)cc1)c1ccc2ccccc2c1 (racemic) [Naphthalene-2-sulfonic acid (4-{4-[3-(2-fluoro-benzyloxy)-propoxy]-phenyl}-piperidin-3-yl)-amide]
18 | > 1000 | COc1ccccc1COCCCOc1ccc([C@H]2CCNC[C@H]2NCc2ccc3c(c2)N(CCN(C)C)CCC3)cc1 (racemic) [[1-(2-dimethylamino-ethyl)-1,2,3,4-tetrahydro-quinolin-7-ylmethyl]-(4-{4-[3-(2-methoxybenzyloxy)-propoxy]-phenyl}-piperidin-3-yl)-amine]
19 | 393 | COc1ccccc1COCCCOc1ccc([C@H]2CCNC[C@H]2NCc2ccc3occc3c2)cc1 (racemic) [benzofuran-5-ylmethyl-(4-{4-[3-(2-methoxy-benzyloxy)-propoxy]-phenyl}-piperidin-3-yl)-amine]
20 | > 1000 | COc1ccccc1COCCCOc1ccc([C@H]2CCNC[C@H]2NC(=O)c2cccc3ccccc23)cc1 (racemic) [naphthalene-1-carboxylic acid (4-{4-[3-(2-methoxy-benzyloxy)-propoxy]-phenyl}-piperidin-3-yl)-amide]
21 | 924 | COC(=O)COc1cccc(CN[C@H]2CNCC[C@H]2c2ccc(OCCCOCc3ccccc3F)cc2)c1 (racemic) [{3-[(4-{4-[3-(2-Fluoro-benzyloxy)-propoxy]-phenyl}-piperidin-3-ylamino)-methyl]-phenoxy}-acetic acid methyl ester]
